In patent US20080132481A1, “INTERLEUKIN-4 GENE EXPRESSION INHIBITORS” (AVENTIS PHARMACEUTICALS INC., priority 2002, published 2008):
Structures can show the parent of a compound that is named as a salt. Starred links: 1 amine or outer side, 2 acyl side, 3 side chain; linkers in the order of their positions; H or OH if unused. Positions of bridges follow the written chain, without caps; N, C: chain ends. Non-standard residues stand in square brackets, D forms with d. Residues, ends and D or L forms follow the SMILES beside them. Chains are numbered I, II in the order given. Actinocin(9to1) = Cc1c2oc3c(C)ccc(C(=O)[*:1])c3nc-2c(C(=O)[*:2])c(N)c1=O; NMeV = CN[C@H](C(=O)O)C(C)C; Sar = CNCC(=O)O

Assays:
eosinophils = experiment: In vivo ovalbumin (OVA) mouse model, BALF eosinophils; settings: i.n., 30 mg/kg
Description: (§1) This model is designed to determine the ability of a test article to modulate an antigen-induced pulmonary inflammatory cell accumulation in sensitized Balb/c mice from Charles River Laboratories. The mice are given a two week time period from arrival date prior to sensitizations.
(§2) On days 0, 7, 14, each animal is injected intraperitoneal (i.p.) with a 0.2 ml Ovalbumin Hydragel solution. Each animal receives 10 μg of Ovalbumin in 0.2 mL of Hydragel, aluminum hydroxide adsorptive gel containing 2% aluminum oxide. On Day 21, the animals are dosed with test compounds 30-60 minutes prior to 5% Ovalbumin aerosolized challenge. On day 22, BALF samples are collected from one group of animals and used for cytokine analysis. On day 24, BALF is obtained from a second group of animals and used for differential cell counts.
(§3) Test System: Female Babl/cJ mice (Jackson Laboratories), approximately 6-9 weeks old, each weighing approximately 20 to 25 grams, are divided into ten animals per group.
(§4) Sensitization Regimen: Mice are sensitized by an intraperitoneal injection of 10 μg ovalbumin (OVA) mixed in 4 mg aluminum hydroxide Al(OH)3 gel suspension in 0.2 ml sterile saline on Days 0, 7 and 14. This suspension is prepared one hour before intraperitoneal injection into each mouse. The animals are ready for OVA challenge on Day 21.
(§5) Antigen Challenge: Animals are exposed to aerosolized OVA on day 21 (5% w/v in sterile saline) for 20 minutes. The aerosol is generated by a PARI-Master nebulizer, the outlet of which is connected to a small Plexiglas® chamber containing the animals. Bronchoalveolar lavage is performed on Day 22.
Method of Study Performance: On day 24, 72 hours following aerosol OVA exposure, a separate group of animals are anesthetized with urethane (0.15-0.2 gm/kg) and the trachea is exposed and cannulated. Lungs are lavaged with 2×0.5 ml Hank's balanced salt solution without Ca^2+ and Mg^2+ (HBSS; Gibco, Grand Island, N.Y.) containing 0.1% EDTA. Lavage fluid is recovered after 30 sec by gentle aspiration and pooled for each animal. Samples are centrifuged at 2000 rpm for 15 minutes at 5° C. After centrifugation, individual supernatants are stored frozen at −80° C. The resulting pellet is resuspended in 0.5 ml of HBSS containing 0.1% EDTA. Total cells and eosinophils are determined using a Technicon Hl and cytoslides, respectively. […]
(§6) FIG. 1 summarizes results from one representative experiment (out of three) in which in addition to BALF cytokines, lung eosinophilia is also determined. […] After the OVA challenge for 24 hours, the mice underwent bronchoalveolar lavage and IL-4 and IL-13 levels in the BALF are determined by ELISA. […]

IL-4 = experiment: In vivo ovalbumin (OVA) mouse model, BALF IL-4; settings: i.n.
Description: as §1, §2, §3, §4, §5
Method of Study Performance: On day 24, 72 hours following aerosol OVA exposure, a separate group of animals are anesthetized with urethane (0.15-0.2 gm/kg) and the trachea is exposed and cannulated. Lungs are lavaged with 2×0.5 ml Hank's balanced salt solution without Ca^2+ and Mg^2+ (HBSS; Gibco, Grand Island, N.Y.) containing 0.1% EDTA. Lavage fluid is recovered after 30 sec by gentle aspiration and pooled for each animal. Samples are centrifuged at 2000 rpm for 15 minutes at 5° C. After centrifugation, individual supernatants are stored frozen at −80° C. The resulting pellet is resuspended in 0.5 ml of HBSS containing 0.1% EDTA. Total cells and eosinophils are determined using a Technicon Hl and cytoslides, respectively.
Administration of the Test/Control Article: The test article and vehicle dosing preparations are administered once to each anesthetized mouse intranasally using a 200 μl pipette at 30-60 minutes prior to OVA challenge. Each animal receives 50 μl (25 μl/nostril) at each time point. Method of Euthanasia: Urethane overdose at in-life completion.
Statistical Analysis: Total cell and eosinophil number from various treatment groups is compared using an ANOVA followed by a multiple comparison test.
Compounds administered 30 minutes before aerosol ovalbumin challenge in ova sensitized mice. BALF harvested 24 hours after aerosol challenge. N=6/group.
as §6, with “determined. Mice (12 animals per group) are sensitized with 0.2 ml of an AlOH3 hydrogel suspension (2% AlOH3) containing 50 μg/ml ovalbumin on days 0, 7 and 14.” for “determined.”

Swiss 3T3 fibroblasts = experiment: In vitro cytotoxicity assay on contact inhibited 3T3 fibroblasts (MTS); format: cell-based; settings: non-dividing 3T3 cells
Description: Other toxicity assays may be used.
Any compound killing 3T3 fibroblast cells was omitted from further studies.
Contact inhibited Swiss 3T3 fibroblasts are purchased from ATCC.
All compound dilutions are assayed in triplicate. […] Cells are returned to the incubator for 2 days.
Media is added to blank wells for background calculations.
Note that starting concentration of CsA was 1 μM.

Row | Compound | melting point | Eos % ctl At 72 hours (eosinophils) | IL-4% ctl At 24 hours (IL-4; 30 mg/kg) | other results
1 | CCOC(=O)c1[nH]c2cc(Cl)ccc2c1Nc1ccncc1 [Example 13, 6-chloro-3-(4-pyridinylamino)-1H-indole-2-carboxylic acid, ethyl ester] | 258 to 261 °C (dec.) |  |  | 
2 | O=C(O)c1[nH]c2ccccc2c1Nc1ccncc1 [Example 28-EF, 3-(4-Pyridinylamino)-1H-indole-2-carboxylic acid] |  | 42 % ctl | 27 % ctl | 
3 | O=C(O)c1[nH]c2ccccc2c1Nc1ccncc1 [28 (maleate salt), 3-(4-Pyridinylamino)-1H-indole-2-carboxylic acid] |  |  |  | IL-4% ctl At 24 hours (IL-4; 12 mg/kg): 50 % ctl
4 | CCOC(=O)c1c(Nc2ccncc2)c2ccccc2n1C [Example 24A (maleate salt), 1-Methyl-3-(4-pyridinylamino)-1H-indole-2-carboxylic ethyl ester] |  | 8 % ctl | 3 % ctl | 
5 | Cc1c2oc3c(C)ccc(C(=O)N[C@@H]4C(=O)N[C@H](C(C)C)C(=O)N5CCC[C@H]5C(=O)N(C)CC(=O)N(C)[C@@H](C(C)C)C(=O)O[C@@H]4C)c3nc-2c(C(=O)N[C@@H]2C(=O)N[C@H](C(C)C)C(=O)N3CCC[C@H]3C(=O)N(C)CC(=O)N(C)[C@@H](C(C)C)C(=O)O[C@@H]2C)c(N)c1=O [Actinomycin D, reference compound] (I: T[dV]P[Sar][NMeV] / II: T[dV]P[Sar][NMeV]; ester I:1-I:C, II:1-II:C; linker I:N-II:N via Actinocin(9to1)) |  |  |  | toxic effects on quiescent 3T3 cells (in words) (Swiss 3T3 fibroblasts): the only compound which effected the viability
6 | CCOC(=O)c1[nH]c2ccccc2c1Nc1ccncc1 [Example 11, 3-(4-pyridinylamino)-1H-indole-2-carboxylic acid, ethyl ester] | 248 to 250 °C |  |  | 
7 | O=C(O)c1[nH]c2ccccc2c1Nc1ccncc1 [Example 28-ZD, 3-(4-Pyridinylamino)-1H-indole-2-carboxylic acid] |  | 37.4 % ctl | 49.6 % ctl | 
8 | CCOC(=O)c1[nH]c2cc(-c3ccccc3)ccc2c1Nc1ccncc1 [Example 18, 6-phenyl-3-(4-pyridinylamino)-1H-indole-2-carboxylic acid, ethyl ester] | 241 to 243 °C |  |  | 
9 | CCOC(=O)c1[nH]c2cc(Cl)cc(Cl)c2c1NS(=O)(=O)c1ccccc1 [Example 90, 3-((Phenylsulfonyl)amino)-4,6-dichloro-1H-indole-2-carboxylic acid ethyl ester] |  | 71 % ctl | 37 % ctl | 
